29 compounds from ChEMBL document CHEMBL4602618, “Novel compounds that reverse the disease phenotype in Type 2 Gaucher disease patient-derived cells” (Bioorg Med Chem Lett, 2020) can be followed below.

Values after ≈ are worked out from the molar mass of the structure shown.

The nature of data set [1]: Chaperone activity at GCase L444P GBA gene mutant in human fibroblasts derived from Gaucher patient assessed as increase in GPN-induced reduction of calcium release using Fluo-8AM based fluorescence assay.
Another data set is filed under the species Homo sapiens. Description: Chaperone activity at GCase L444P GBA gene mutant in human fibroblasts derived from Gaucher patient assessed as increase in GPN-induced reduction of calcium release using Fluo-8AM based fluorescence assay relative to control.
In data set [2] the target is T1, Estrogen receptor (Homo sapiens) (UniProt P03372).
T1 sequence (whole entry): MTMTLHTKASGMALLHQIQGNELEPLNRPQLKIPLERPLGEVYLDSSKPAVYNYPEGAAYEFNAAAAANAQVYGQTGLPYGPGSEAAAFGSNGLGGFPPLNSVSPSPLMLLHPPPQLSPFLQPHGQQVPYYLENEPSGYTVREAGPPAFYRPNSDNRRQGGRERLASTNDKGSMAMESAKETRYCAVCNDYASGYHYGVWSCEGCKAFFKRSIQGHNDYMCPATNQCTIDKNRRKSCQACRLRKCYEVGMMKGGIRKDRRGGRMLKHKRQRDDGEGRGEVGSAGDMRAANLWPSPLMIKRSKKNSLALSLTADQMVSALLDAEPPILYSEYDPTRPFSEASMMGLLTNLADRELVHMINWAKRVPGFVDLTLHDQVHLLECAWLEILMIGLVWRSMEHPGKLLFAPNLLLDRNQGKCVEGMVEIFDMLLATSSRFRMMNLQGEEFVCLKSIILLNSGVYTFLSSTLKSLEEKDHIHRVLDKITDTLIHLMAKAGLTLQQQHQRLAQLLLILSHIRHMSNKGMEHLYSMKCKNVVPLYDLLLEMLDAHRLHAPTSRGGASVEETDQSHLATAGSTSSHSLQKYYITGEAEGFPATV
Description: Agonist activity at estradiol receptor (unknown origin) at 10 uM relative to control.

Data set [3] addresses T2, Lysosomal acid glucosylceramidase (Homo sapiens) (UniProt P04062).
T2 sequence (whole entry): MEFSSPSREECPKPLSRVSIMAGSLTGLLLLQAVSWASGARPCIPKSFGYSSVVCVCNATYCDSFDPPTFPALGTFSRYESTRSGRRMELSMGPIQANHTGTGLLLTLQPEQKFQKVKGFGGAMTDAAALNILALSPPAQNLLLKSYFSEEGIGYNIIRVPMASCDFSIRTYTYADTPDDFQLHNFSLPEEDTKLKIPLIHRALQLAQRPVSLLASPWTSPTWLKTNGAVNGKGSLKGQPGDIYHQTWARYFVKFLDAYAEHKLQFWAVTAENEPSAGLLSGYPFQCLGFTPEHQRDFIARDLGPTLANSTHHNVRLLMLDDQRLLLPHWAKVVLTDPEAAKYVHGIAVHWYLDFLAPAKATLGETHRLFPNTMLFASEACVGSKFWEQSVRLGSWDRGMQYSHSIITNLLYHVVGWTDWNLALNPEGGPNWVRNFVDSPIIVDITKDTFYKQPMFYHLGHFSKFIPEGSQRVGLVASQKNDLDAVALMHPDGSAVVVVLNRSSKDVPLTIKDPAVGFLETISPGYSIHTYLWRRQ
Nature of the data set: Chaperone activity at GCase in wild-type human fibroblasts assessed as increase in GPN-induced reduction of calcium release using Fluo-8AM based fluorescence assay relative to control.

Data set [4] is described as follows: Aqueous solubility of compound in PBS. The data set is classed as physicochemical. Conditions: buffer.
The conditions of data set [5]: mouse, microsomes.
Description: Metabolic stability in mouse liver microsomes assessed as half life
The conditions of data set [6]: human, microsomes.

One may read the EC50 as the concentration at which the effect is half-maximal. One may read the Emax as the greatest response seen or fitted, relative to the assay's reference. The term solubility denotes the dissolved amount per volume that the medium holds. A low value points to little dissolved substance.

Take `CCCCC(C(=O)c1ccc(OCCN(C)C)cc1)c1ccccc1C(C)C` (configuration not stated): the EC50 in data set [1] was 1.4 µM. For the same compound, the results for the Emax (in the data set listed under Homo sapiens; in data set [3]) were 401% and 56%, respectively. In data set [2], this compound had an Activity of 45%. In data set [4], this compound showed a solubility of 49.4 µM (≈ 18.8 µg/mL). In addition, the figures for the t1/2 in data set [5] and in data set [6] were 7.9 min and 21.6 min, respectively.

As to `CC(C)CC(C(=O)c1ccc(OCCN(C)C)cc1)c1ccccc1C1CC1` (racemic), the EC50 in data set [1] was 3.1 µM. Moreover, the values for the Emax (in the data set listed under Homo sapiens; in data set [3]) were 240% and 50%, respectively. The compound also showed an Activity in data set [2] of 0%. In data set [4], this compound came in with a solubility of 31.7 µM (≈ 12 µg/mL). For the same compound, the values for the t1/2 in data set [5] and in data set [6] were 7.7 min and 26.7 min, respectively.

Regarding `CC/C(=C/c1ccc(OCCN(C)C)cc1)c1ccccc1`, the EC50 in data set [1] was 15.5 µM. Besides, in the data set filed under Homo sapiens, the Emax came out at 80%. In data set [2], this compound had an Activity of 35%.

Take `CCCC/C(=C\c1ccc(OCCN(C)C)cc1)c1ccccc1`: the EC50 in data set [1] was found to be 7.2 µM. Moreover, the Emax in the data set listed under Homo sapiens came to 56%. Moreover, the Activity in data set [2] stood at 98%.

`C=Cc1ccccc1C(CCCC)C(=O)c1ccc(OCCN(C)C)cc1` (configuration not stated): the EC50 in data set [1] was found to be 2.3 µM. Also, the Emax in the data set listed under Homo sapiens stood at 177%. The Activity in data set [2] came out at 100%.

`CC(C)CC(C(=O)c1ccc(OCCN(C)C)cc1)c1ccccc1` (configuration not stated): in data set [1], the EC50 is 0.9 µM. The Emax in the data set listed under Homo sapiens amounted to 108%. In data set [2], this compound had an Activity of 40%.

Regarding `CC/C(=C/c1ccc(OCCN(C)C)cc1)c1ccc(Cl)cc1`, in data set [1], the EC50 came out at 5.4 µM. The Emax in the data set listed under Homo sapiens worked out at 70%. The same compound yielded an Activity in data set [2] of 70%.

For the compound `CC/C(=C/c1ccc(OCCN(C)C)cc1)Cc1ccccc1`, the EC50 in data set [1] came out at 2.3 µM. Besides, the Emax in the data set filed under Homo sapiens came out at 40%. This compound came in with an Activity in data set [2] of 47%.

In the case of `CCCC(CCC)(C(=O)c1ccc(OCCN(C)C)cc1)c1ccccc1`, the EC50 in data set [1] worked out at 4 µM. Further, in the data set filed under Homo sapiens, the Emax amounted to 60%. Moreover, the Activity in data set [2] was determined as 25%.

As to `CCC(Cc1ccccc1)c1ccc(OCCN(C)C)cc1` (configuration not stated), the EC50 in data set [1] is greater than 20 µM. Besides, the Emax in the data set filed under Homo sapiens came out at 0%. The compound further showed an Activity in data set [2] of 75%.

As to `CC(C)CC(C(=O)c1ccc(OCCN(C)C)cc1)c1ccccc1C(C)C` (configuration not stated), the Emax in the data set listed under Homo sapiens was 406%; in data set [3], 148%. The Activity in data set [2] came to 39%.

As to `CC/C(=C/c1ccc(OCCN(C)C)cc1)c1ccc(C(N)=O)cc1`, the EC50 in data set [1] was greater than 20 µM. For the same compound, the Emax in the data set filed under Homo sapiens was 0%. The same compound gave an Activity in data set [2] of 46%.

`CC/C(=C(\c1ccc(I)cc1)c1ccc(OCCN2CCCC2)cc1)c1ccccc1` [IDOXIFENE]: the EC50 in data set [1] was 10.7 µM. Moreover, the Emax in the data set filed under Homo sapiens worked out at 48%.

For `CC/C(=C/c1ccc(OCCN(C)C)cc1)c1ccc(N)cc1`, the EC50 in data set [1] was greater than 20 µM. For the same compound, the Emax in the data set listed under Homo sapiens worked out at 0%. Further, the Activity in data set [2] came to 25%.

Take `CC(C)C(C(=O)c1ccc(OCCN(C)C)cc1)c1ccccc1` (configuration not stated): the EC50 in data set [1] came to 4.4 µM. Besides, the Emax in the data set listed under Homo sapiens worked out at 54%.

Consider `CCC(Cc1ccc(OCCN(C)C)cc1)c1ccccc1` (configuration not stated), for which the EC50 in data set [1] worked out at 4.3 µM. The Emax in the data set filed under Homo sapiens was found to be 154%. In data set [2], this compound registered an Activity of 43%.

`CC/C(=C\c1ccc(OCCN(C)C)cc1)Cc1ccccc1`: the EC50 in data set [1] amounted to 3.1 µM. Besides, in the data set listed under Homo sapiens, the Emax is 67%. This compound showed an Activity in data set [2] of 69%.

Consider `CC(C)CC(C(=O)c1ccc(OCCN(C)C)cc1)c1cccc(C(C)C)c1` (configuration not stated), for which the EC50 in data set [1] was 1.5 µM. Further, the Emax in the data set listed under Homo sapiens is 80%.

For `CC/C(=C(\c1ccccc1)c1ccc(OCCN(C)C)cc1)c1ccccc1`, the results for the Emax (in the data set listed under Homo sapiens; in data set [3]) were 148% and 28%, respectively.

As for `CCCCC(C(=O)c1ccc(OCCN(C)C)cc1)c1ccccc1CC` (configuration not stated), in data set [1], the EC50 worked out at 0.65 µM. The Emax in the data set listed under Homo sapiens was found to be 138%.

`CC/C(=C\c1ccc(OCCN(C)C)cc1)c1ccccc1`: the EC50 in data set [1] came out at 5.8 µM. The Emax in the data set listed under Homo sapiens was determined as 73%. In data set [2], the Activity came to 19%.

As to `CC/C(=C\c1ccccc1)c1ccc(OCCN(C)C)cc1`, in data set [1], the EC50 amounted to 3 µM. The Emax in the data set listed under Homo sapiens is 53%. This compound also gave an Activity in data set [2] of 43%.

Take `CC/C(=C/c1ccc(OCCN(C)C)cc1)c1ccc([N+](=O)[O-])cc1`: the EC50 in data set [1] was greater than 20 µM. Besides, the maximum response (Emax) in the data set filed under Homo sapiens is 0%.

Consider `CC/C(=C/c1ccc(OCCN(C)C)cc1)c1ccc(F)cc1`, for which the EC50 in data set [1] is greater than 20 µM. Besides, the Emax in the data set listed under Homo sapiens is 0%. In data set [2], this compound yielded an Activity of 46%.

In the case of `CCCCC(C(=O)c1ccc(OCCN(C)C)cc1)c1ccccc1` (configuration not stated), in data set [1], the EC50 was greater than 20 µM. Further, in the data set filed under Homo sapiens, the Emax was determined as 0%.

For the compound `CC(C)CCC(C(=O)c1ccc(OCCN(C)C)cc1)c1ccccc1` (configuration not stated), the EC50 in data set [1] stood at 3.6 µM. For the same compound, the Emax in the data set filed under Homo sapiens was determined as 191%. The Activity in data set [2] amounted to 35%.

Regarding `C/C=C/c1ccccc1C(CCCC)C(=O)c1ccc(OCCN(C)C)cc1` (configuration not stated), the EC50 in data set [1] stood at 2.2 µM. The Emax turned out to be 257% in the data set listed under Homo sapiens and 109% in data set [3]. The Activity in data set [2] was 35%. The same compound displayed a solubility in data set [4] of 45.2 µM (≈ 17.2 µg/mL). For the same compound, the t1/2 worked out at 9.1 min in data set [5] and 24.4 min in data set [6].

For `CCCCCCC(C(=O)c1ccc(OCCN(C)C)cc1)c1ccccc1` (configuration not stated), the EC50 in data set [1] was greater than 20 µM. Moreover, in the data set listed under Homo sapiens, the Emax is 0%. This compound came in with an Activity in data set [2] of 5%.

For the compound `CC/C(=C/c1ccc(OCCN(C)C)cc1)c1ccc(C#N)cc1`, the EC50 in data set [1] turned out to be 4.3 µM. The Emax in the data set listed under Homo sapiens was found to be 47%. The same compound had an Activity in data set [2] of 32%.
